# Results taken from US6610735B2, “Method, compositions and kits for increasing the oral bioavailability of pharmaceutical agents” (Baker Norton Pharmaceuticals, Inc., priority 1995, dated 2003).
# Experiments:
# [1] = Whole blood radioactivity of 3H-etoposide with/without oral cyclosporin (Example 6, NP960102); format: in vivo, rats; details: Grp C: CsA 5/PO, then Etoposide 1/PO + CsA 5/PO
# [2] = tested on: highly resistant human KB carcinoma cells; details: cited from earlier work
# [3] = male, Sprague-Dawley, rat, in vivo
# [4] = Whole blood radioactivity of oral 3H-etoposide with oral ketoconazole (Example 7, NP960501); format: in vivo, rats; details: ketoconazole 2, 10, 50 mg/kg oral
# [5] = Serum paclitaxel after IV or oral paclitaxel with/without oral cyclosporin (Example 1); format: in vivo, Sprague Dawley rats
# [6] = rat, in vivo, po
# [7] = Whole blood and urine radioactivity after radiolabeled paclitaxel with/without cyclosporin (Example 3)
# [8] = Total radioactivity and unchanged paclitaxel pharmacokinetics, rats n = 10 (Tables 5A, 5B)
# [9] = in vivo, po; cited from earlier work
# [10] = rat, in vivo, iv
structure (smiles),measurement,setting,value
"COc1cc([C@@H]2c3cc4c(cc3[C@@H](O[C@@H]3O[C@@H]5CO[C@@H](C)O[C@H]5[C@H](O)[C@H]3O)[C@H]3COC(=O)[C@H]23)OCO4)cc(OC)c1O [Etoposide, etoposide]",F%,[1],about 96%
"CC(=O)N1CCN(c2ccc(OCC3COC(Cn4ccnc4)(c4ccc(Cl)cc4Cl)O3)cc2)CC1 (centres unmarked) [Ketoconazole, ketoconazole]",reversal of MDR,[2],reverse MDR
same,dose-response of oral absorption of radioactivity,[3],no further increase in oral absorption of radioactivity
same,effect on oral absorption of etoposide compared to etoposide alone,[4],did not enhance the oral absorption of etoposide
"CC(=O)O[C@H]1C(=O)[C@@]2(C)[C@H]([C@H](OC(=O)c3ccccc3)[C@]3(O)C[C@H](OC(=O)[C@H](O)[C@@H](NC(=O)c4ccccc4)c4ccccc4)C(C)=C1C3(C)C)[C@]1(OC(C)=O)CO[C@@H]1C[C@@H]2O [Paclitaxel, paclitaxel]",bioavailability of the paclitaxel in serum,[5]; oral paclitaxel in the absence of cyclosporin,less than 1%
same,bioavailability of the paclitaxel in serum,[5]; third group: cyclosporin 1 h prior to and with oral paclitaxel,6-7%
same,"F (%) Based on AUC0-00, total radioactivity",[6],16.4%
same,"AUC0-24, total radioactivity in blood",[7]; PO (B),3.2 μg eq × hr/ml
same,Tmax,[7]; PO (B) column as printed,25 h
same,"AUC0-24, total radioactivity in blood","[7]; PO+CsA (C), CsA 1 hr prior to and simultaneously",12.1 μg eq × hr/ml
same,"AUC0-24hr, unchanged paclitaxel",[8]; PO + CsA,4270 ng·h/mL
same,"AUC0-[…], unchanged paclitaxel",[8]; PO + CsA,5410 ng·h/mL
same,"AUC0-[…], unchanged paclitaxel",[8]; PO Dose,349 ng·h/mL
same,"AUC0-24hr, unchanged paclitaxel",[8]; PO Dose 9 mg/kg,314 ng·h/mL
same,"AUC0-00, total radioactivity",[8]; Paclitaxel Oral 9 mg/kg,4.5 μg equiv.hr/mL
same,"AUC0-24hr, total radioactivity",[8]; Paclitaxel Oral 9 mg/kg,1.4 μg equiv.hr/mL
same,"AUC0-00, total radioactivity",[8]; Paclitaxel Oral + CsA,15.0 μg equiv.hr/mL
same,"AUC0-24hr, total radioactivity",[8]; Paclitaxel Oral + CsA 5 mg/kg 1 hr prior to and concomitantly,8.1 μg equiv.hr/mL
same,absorbed when administered orally,[9],less than 1%
same,% Dose in urine (4-24 hr),[10],2.2 % Dose
